Measurements: patent publication US12643867B2, “Compositions and uses thereof” (University of Virginia Patent Foundation, priority 2017, dated 2026)

Key:
Assay in all cases: SILAC LC-MS ATP acyl phosphate probe competition, native kinases in HEK293T
Type in all cases: binding
[1] = target: T1, KS6B1 (Ribosomal protein S6 kinase 1, p70 S6 kinase alpha) (Homo sapiens, UniProt P23443); conditions: site Lys2; ATP 1 mM; Ketanserin, Ritanserin 100 μM; RF001 1 mM
T1 construct: measured against >50 native kinases quantified in HEK293T soluble proteomes; endogenous in cells; host or cells: HEK293T soluble proteome
In short: (§1)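 HEK293T SILAC proteomes, 2 mg/ml; heavy + compound (from 50× DMSO stock), light + DMSO, 30 min, 25° C. Mix 1:1, MeOH/CHCl3 extraction, DTT/iodoacetamide, trypsin/Lys-C 3 h 37° C. Avidin enrichment of desthiobiotin-modified peptides; Orbitrap Q Exactive Plus LC-MS, top-10 DDA.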

[2] = target: T2, MP2K4 (Dual specificity mitogen-activated protein kinase kinase 4) (Homo sapiens, UniProt P45985); conditions: site Lys2; ATP 1 mM; Ketanserin, Ritanserin 100 μM; RF001 1 mM
T2 construct: Native kinases; endogenous in cells; host or cells: HEK293T soluble proteome
T2 sequence (P45985 1-399): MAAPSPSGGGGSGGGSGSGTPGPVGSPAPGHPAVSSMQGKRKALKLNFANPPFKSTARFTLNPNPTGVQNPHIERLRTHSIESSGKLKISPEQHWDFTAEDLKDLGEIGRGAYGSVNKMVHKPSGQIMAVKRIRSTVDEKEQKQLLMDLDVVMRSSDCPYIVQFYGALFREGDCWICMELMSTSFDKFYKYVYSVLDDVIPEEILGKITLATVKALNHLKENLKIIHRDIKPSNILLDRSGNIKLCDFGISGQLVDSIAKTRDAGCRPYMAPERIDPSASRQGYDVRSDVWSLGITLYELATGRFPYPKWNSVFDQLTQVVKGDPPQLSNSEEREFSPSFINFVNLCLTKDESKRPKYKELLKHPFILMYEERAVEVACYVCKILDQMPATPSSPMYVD
In short: as §1

[3] = target: T3, KS6A1 (Ribosomal protein S6 kinase alpha 1) (Homo sapiens, UniProt Q15418); conditions: site ACT; ATP 1 mM; Ketanserin, Ritanserin 100 μM; RF001 1 mM
T3 construct: measured against >50 native kinases quantified in HEK293T soluble proteomes; endogenous in cells; host or cells: HEK293T soluble proteome
In short: as §1

[4] = target: T4, CSK (Tyrosine-protein kinase CSK) (Homo sapiens, UniProt P41240); conditions: site ACT; ATP 1 mM; Ketanserin, Ritanserin 100 μM; RF001 1 mM
T4 construct: measured against >50 native kinases quantified in HEK293T soluble proteomes; endogenous in cells; host or cells: HEK293T soluble proteome
In short: as §1

T1 sequence (P23443 whole entry): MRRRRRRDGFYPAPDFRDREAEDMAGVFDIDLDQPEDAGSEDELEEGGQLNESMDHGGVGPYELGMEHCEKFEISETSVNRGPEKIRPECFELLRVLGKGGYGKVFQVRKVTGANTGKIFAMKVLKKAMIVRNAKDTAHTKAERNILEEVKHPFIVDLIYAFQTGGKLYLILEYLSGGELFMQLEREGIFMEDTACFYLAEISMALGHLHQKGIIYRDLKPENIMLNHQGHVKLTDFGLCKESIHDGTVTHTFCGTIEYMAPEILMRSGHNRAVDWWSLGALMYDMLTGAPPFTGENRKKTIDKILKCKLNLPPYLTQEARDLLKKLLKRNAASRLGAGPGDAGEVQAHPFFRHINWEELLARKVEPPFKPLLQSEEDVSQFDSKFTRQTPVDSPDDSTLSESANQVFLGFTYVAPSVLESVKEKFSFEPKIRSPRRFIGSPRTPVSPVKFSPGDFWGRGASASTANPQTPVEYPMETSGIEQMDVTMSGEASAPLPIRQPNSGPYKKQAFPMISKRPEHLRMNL
T3 sequence (Q15418 whole entry): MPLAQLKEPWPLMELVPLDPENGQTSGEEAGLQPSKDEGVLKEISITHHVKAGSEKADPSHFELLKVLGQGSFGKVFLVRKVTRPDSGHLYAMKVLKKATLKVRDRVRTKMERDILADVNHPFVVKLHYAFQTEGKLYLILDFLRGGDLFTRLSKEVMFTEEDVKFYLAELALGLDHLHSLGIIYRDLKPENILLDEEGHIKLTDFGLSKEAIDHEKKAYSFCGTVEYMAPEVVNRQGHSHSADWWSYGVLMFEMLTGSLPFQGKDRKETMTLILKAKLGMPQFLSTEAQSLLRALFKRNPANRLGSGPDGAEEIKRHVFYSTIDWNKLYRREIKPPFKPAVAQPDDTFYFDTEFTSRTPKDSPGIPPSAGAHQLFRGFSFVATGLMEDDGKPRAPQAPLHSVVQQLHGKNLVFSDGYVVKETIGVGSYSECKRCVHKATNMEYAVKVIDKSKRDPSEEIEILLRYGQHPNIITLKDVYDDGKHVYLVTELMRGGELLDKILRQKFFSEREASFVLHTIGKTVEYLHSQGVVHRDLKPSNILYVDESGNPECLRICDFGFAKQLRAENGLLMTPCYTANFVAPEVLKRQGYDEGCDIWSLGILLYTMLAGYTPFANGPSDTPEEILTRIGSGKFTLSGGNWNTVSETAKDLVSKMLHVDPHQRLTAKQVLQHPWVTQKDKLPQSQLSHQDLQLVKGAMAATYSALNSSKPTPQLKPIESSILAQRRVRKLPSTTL

| SILAC ratio, KS6B1 probe-modified peptide [1] | SILAC ratio, MP2K4 probe-modified peptide [2] | SILAC ratio, KS6A1 probe-modified peptide [3] | SILAC ratio, CSK probe-modified peptide [4] | Structure (SMILES) |
| --- | --- | --- | --- | --- |
| 1.2 | 1.3 | 1.4 | 1.2 | O=C(c1ccc(F)cc1)C1CCN(CCn2c(=O)[nH]c3ccccc3c2=O)CC1 [Ketanserin] |
| 1.0 | 0.9 | 1.3 | 1.1 | Fc1ccc(C(=C2CCNCC2)c2ccc(F)cc2)cc1 [RF001, 4-(Bis(4-fluorophenyl)methylene) piperidine] |

| Structure (SMILES) | SILAC ratio, KS6B1 probe-modified peptide [1] | SILAC ratio, MP2K4 probe-modified peptide [2] | SILAC ratio, KS6A1 probe-modified peptide [3] | SILAC ratio, CSK probe-modified peptide [4] |
| --- | --- | --- | --- | --- |
| Cc1nc2sccn2c(=O)c1CCN1CCC(=C(c2ccc(F)cc2)c2ccc(F)cc2)CC1 [Ritanserin] | 1.3 | 1.6 | 2.1 | 1.8 |
